In ChEMBL document CHEMBL3046441, “Importance of physicochemical properties for the design of new pesticides” (J Agric Food Chem, 2011):

Key:
[1] = test system: Periplaneta americana; test: Toxic effect in Periplaneta americana (American cockroach) assessed as paralyzed insects after 24 hr of abdomen compound injection by insecticidal assay; type: functional
[2] = molecular target: T1, Nicotinic acetylcholine receptor alpha8 subunit (Periplaneta americana) (UniProt H6TY12); test: Neuroblocking activity in Periplaneta americana (American cockroach) nicotinic acetylcholine receptor in abdominal fifth and sixth ganglia nerve assessed as neuroblocking concentration by neurophysiological test
T1 sequence (whole entry): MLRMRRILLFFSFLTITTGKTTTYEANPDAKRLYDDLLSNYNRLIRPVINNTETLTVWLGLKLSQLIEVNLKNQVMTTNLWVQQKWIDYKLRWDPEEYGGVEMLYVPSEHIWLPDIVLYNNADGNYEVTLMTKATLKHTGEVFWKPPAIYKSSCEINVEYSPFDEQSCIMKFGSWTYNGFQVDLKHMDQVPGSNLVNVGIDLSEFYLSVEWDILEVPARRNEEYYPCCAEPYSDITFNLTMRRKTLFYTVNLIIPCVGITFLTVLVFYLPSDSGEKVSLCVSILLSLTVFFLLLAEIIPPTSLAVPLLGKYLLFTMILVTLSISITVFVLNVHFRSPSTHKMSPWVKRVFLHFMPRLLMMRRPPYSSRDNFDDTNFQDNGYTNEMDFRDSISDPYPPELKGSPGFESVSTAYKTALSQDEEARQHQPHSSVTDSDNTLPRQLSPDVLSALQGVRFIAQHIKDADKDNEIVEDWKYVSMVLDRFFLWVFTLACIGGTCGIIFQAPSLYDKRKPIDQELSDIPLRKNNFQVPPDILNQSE

[3] = Dissociation constant, pKa of the compound at pH 7.3; type: physicochemical
[4] = Apparent hydrophobicity, log D of the compound in Octanol-buffer; type: physicochemical; conditions: for logD: octanol/buffer; for logD(app): octanol/water
[5] = Hydrophobicity, log P of the compound in octanol-water by shaking-flask method; type: physicochemical

O=[N+]([O-])/C=C1\NCCN1Cc1ccc(Cl)nc1
log(1/MLD) [1]: 10.19
log(1/BC) [2]: 5.02

O=[N+]([O-])/N=C1\NCCCN1Cc1ccc(Cl)nc1
log(1/MLD) [1]: 10.12
log(1/BC) [2]: 5.35

O=[N+]([O-])/C=C1\SCCN1Cc1ccc(Cl)nc1
log(1/MLD) [1]: 10.37
log(1/BC) [2]: 6.19

CN1CCN(Cc2ccc(Cl)nc2)/C1=N/[N+](=O)[O-]
log(1/MLD) [1]: 8.62
log(1/BC) [2]: 3.81

O=[N+]([O-])/N=c1\ccccn1Cc1ccc(Cl)nc1
log(1/MLD) [1]: 9.99
log(1/BC) [2]: 5.09

O=[N+]([O-])/N=c1\ccccn1Cc1cnc(Cl)s1
log(1/MLD) [1]: 9.74
log(1/BC) [2]: 5.75

O=[N+]([O-])/C=C1\CCCN1Cc1ccc(Cl)nc1
log(1/MLD) [1]: 10.44
log(1/BC) [2]: 6.43

O=[N+]([O-])/C=C1\NCCN1Cc1cnc(Cl)s1
log(1/MLD) [1]: 10.24
log(1/BC) [2]: 5.73

O=[N+]([O-])/N=C1\SCCN1Cc1cnc(Cl)s1
log(1/MLD) [1]: 8.91
log(1/BC) [2]: 6

O=[N+]([O-])/C=C1\CCCN1Cc1cnc(Cl)s1
log(1/MLD) [1]: 10.06
log(1/BC) [2]: 6.31

CN1CCN(Cc2ccc(Cl)nc2)/C1=C/[N+](=O)[O-]
log(1/MLD) [1]: 8.07
log(1/BC) [2]: 3.84

O=[N+]([O-])/N=c1\[nH]ccn1Cc1cnc(Cl)s1
log(1/MLD) [1]: 8.82
log(1/BC) [2]: 4.61

O=[N+]([O-])/N=c1\sccn1Cc1cnc(Cl)s1
log(1/MLD) [1]: 8.85
log(1/BC) [2]: 5.79

COc1ccc(CCN(C)CCCC(C#N)(c2ccc(OC)c(OC)c2)C(C)C)cc1OC (stereo not given)
pKa [3]: 1.36

O=[N+]([O-])/N=c1\sccn1Cc1ccc(Cl)nc1
log(1/MLD) [1]: 10.25
log(1/BC) [2]: 5.68

CCCC(=O)Nc1ccc(OCC(O)CNC(C)C)c(C(C)=O)c1 (stereo not given) [ACEBUTOLOL]
pKa [3]: 2.11

CC(=O)Nc1ccc(O)cc1 [ACETAMINOPHEN]
pKa [3]: 0

C=CCc1ccccc1OCC(O)CNC(C)C (stereo not given) [ALPRENOLOL]
logD [4]: 1.35
logP [5]: 2.89

Cc1c(N(C)C)c(=O)n(-c2ccccc2)n1C [AMINOPYRINE]
pKa [3]: 0

Cc1cc(=O)n(-c2ccccc2)n1C [ANTIPYRINE]
pKa [3]: 0

CCNc1nc(Cl)nc(NC(C)C)n1 [ATRAZINE]
logD [4]: 2.61

CC(C)N1C(=O)c2ccccc2NS1(=O)=O [BENTAZON]
logP [5]: 2.8

CCOP(=S)(NC(C)CC)Oc1cc(C)ccc1[N+](=O)[O-] (stereo not given) [BUTAMIFOS]
pKa [3]: 0
logD [4]: 4.62

O=C(N[C@H](CO)[C@H](O)c1ccc([N+](=O)[O-])cc1)C(Cl)Cl [CHLORAMPHENICOL]
pKa [3]: 0

Cc1cc(C)cc(C(=O)N(NC(=O)c2ccc3c(c2C)CCCO3)C(C)(C)C)c1 [CHROMAFENOZIDE]
logD [4]: 2.7

Clc1cccc(Cl)c1N=C1NCCN1 [CLONIDINE]
pKa [3]: 0.75
logD [4]: 0.93

C[C@]12C[C@H](O)[C@H]3[C@@H](CCC4=CC(=O)CC[C@@]43C)[C@@H]1CC[C@@H]2C(=O)CO [CORTICOSTERONE]
pKa [3]: 0
logD [4]: 1.94

O=c1ccc2ccccc2o1 [COUMARIN]
pKa [3]: 0

O=[N+]([O-])Nc1nccn1Cc1ccc(Cl)nc1 [DEHYDROIMIDACLOPRID]
log(1/MLD) [1]: 8.72
log(1/BC) [2]: 4.31

C[C@@H]1C[C@H]2[C@@H]3CCC4=CC(=O)C=C[C@]4(C)[C@@]3(F)[C@@H](O)C[C@]2(C)[C@@]1(O)C(=O)CO [DEXAMETHASONE]
pKa [3]: 0
logD [4]: 2.01

COc1ccc([C@@H]2Sc3ccccc3N(CCN(C)C)C(=O)[C@@H]2OC(C)=O)cc1 [DILTIAZEM]
pKa [3]: 0.76
logD [4]: 2.29

CCOP(=S)(OCC)Oc1cc(C)nc(C(C)C)n1 [DIMPYLATE]
logD [4]: 3.3

COP(=S)(OC)Oc1ccc([N+](=O)[O-])c(C)c1 [FENITROTHION]
pKa [3]: 0
logD [4]: 3.3

CCC(C)c1ccccc1OC(=O)NC (stereo not given) [FENOBUCARB]
pKa [3]: 0
logD [4]: 2.78

COP(=S)(OC)Oc1ccc(SC)c(C)c1 [FENTHION]
pKa [3]: 0
logD [4]: 4.09

CC(C)(C)N(NC(=O)c1ccc(Cl)cc1)C(=O)c1ccccc1 [HALOFENOZIDE]
pKa [3]: 0
logD [4]: 3.22

C[C@]12CCC(=O)C=C1CC[C@@H]1[C@@H]2[C@@H](O)C[C@@]2(C)[C@H]1CC[C@]2(O)C(=O)CO [HYDROCORTISONE]
pKa [3]: 0
logD [4]: 1.61

CC(C)Cc1ccc(C(C)C(=O)O)cc1 (stereo not given) [IBUPROFEN]
logD [4]: 1.54

O=[N+]([O-])/N=C1\NCCN1Cc1ccc(Cl)nc1 [IMIDACLOPRID]
log(1/MLD) [1]: 10.15
log(1/BC) [2]: 5.64

O=[N+]([O-])NC1=NCCN1Cc1ccc(Cl)nc1 [IMIDACLOPRID]
pKa [3]: 0
logD [4]: 0.59

O=[N+]([O-])/N=C1\NCCN1Cc1cnc(Cl)s1 [IMIDACLOTHIZ]
log(1/MLD) [1]: 9.62
log(1/BC) [2]: 5.97

CC(C)c1cc(NC(=O)N(C)C)no1 [ISOURON]
logP [5]: 1.98

CC(C(=O)O)c1cccc(C(=O)c2ccccc2)c1 (stereo not given) [KETOPROFEN]
logD [4]: 1.1

CC(CCc1ccccc1)NCC(O)c1ccc(O)c(C(N)=O)c1 (stereo not given) [LABETALOL]
pKa [3]: 2.1
logD [4]: 1.68

COc1nn(CSP(=S)(OC)OC)c(=O)s1 [METHIDATHION]
pKa [3]: 0
logD [4]: 2.5

COc1cccc(C(=O)NN(C(=O)c2cc(C)cc(C)c2)C(C)(C)C)c1C [METHOXYFENOZIDE]
pKa [3]: 0
logD [4]: 3.7

COCCc1ccc(OCC(O)CNC(C)C)cc1 (stereo not given) [METOPROLOL]
logD [4]: 0.24

CC(C)(C)NCC(O)COc1cccc2c1CC(O)C(O)C2 (stereo not given) [NADOLOL]
pKa [3]: 2.37
logD [4]: -0.88

CCn1cc(C(=O)O)c(=O)c2cc(F)c(N3CCNCC3)cc21 [NORFLOXACIN]
pKa [3]: 2.08
logD(app) [4]: -2.42

C=CCOc1ccccc1OCC(O)CNC(C)C (stereo not given) [OXPRENOLOL]
pKa [3]: 2.3
logD [4]: 0.56

CCOC(=O)C(SP(=S)(OC)OC)c1ccccc1 (stereo not given) [PHENTHOATE]
pKa [3]: 0
logD [4]: 3.96
logP [5]: 3.96

O=C1NC(=O)C(c2ccccc2)(c2ccccc2)N1 [PHENYTOIN]
logD [4]: 2.26

CC(C)NCC(O)COc1cccc2[nH]ccc12 (stereo not given) [PINDOLOL]
pKa [3]: 2.24
logD [4]: 0.25

CN1CCN(CC(=O)N2c3ccccc3C(=O)Nc3cccnc32)CC1 [PIRENZEPINE]
pKa [3]: 0.7
logD(app) [4]: -0.37

CN1C(C(=O)Nc2ccccn2)=C(O)c2ccccc2S1(=O)=O [PIROXICAM]
logD [4]: 0.49

CC(=O)Nc1ccc(OCC(O)CNC(C)C)cc1 (stereo not given) [PRACTOLOL]
pKa [3]: 2.1
logD [4]: -0.62

C[C@]12C=CC(=O)C=C1CC[C@@H]1[C@@H]2[C@@H](O)C[C@@]2(C)[C@H]1CC[C@]2(O)C(=O)CO [PREDNISOLONE]
pKa [3]: 0

CNC(=C[N+](=O)[O-])NCCSCc1ccc(CN(C)C)o1 [RANITIDINE]
pKa [3]: 0.88
logD(app) [4]: -0.32

CC(C)(C)N(NC(=O)c1ccccc1)C(=O)c1ccccc1 [RH-5849]
pKa [3]: 0
logD [4]: 2.45

O=C(O)c1ccccc1O [SALICYLIC ACID]
logD [4]: -0.63

COP1(=S)OCc2ccccc2O1 (stereo not given) [SALITHION]
pKa [3]: 0
logD [4]: 2.67

CCc1ccc(C(=O)NN(C(=O)c2cc(C)cc(C)c2)C(C)(C)C)cc1 [TEBUFENOZIDE]
pKa [3]: 0

Cc1c(F)c(F)c(COC(=O)[C@@H]2[C@H](/C=C(\Cl)C(F)(F)F)C2(C)C)c(F)c1F [TEFLUTHRIN]
logP [5]: 6

C[C@]12CC[C@H]3[C@@H](CCC4=CC(=O)CC[C@@]43C)[C@@H]1CC[C@@H]2O [TESTOSTERONE]
pKa [3]: 0

CCN(CC)C(=O)SCc1ccc(Cl)cc1 [THIOBENCARB]
pKa [3]: 0
logD [4]: 3.42

CCCN(CCC)c1c([N+](=O)[O-])cc(C(F)(F)F)cc1[N+](=O)[O-] [TRIFLURALIN]
logP [5]: 5.07
